In PubChem BioAssay AID330 (DTP/NCI, 2004):
Where “and” joins values, the source holds several entries; their conditions need not be identical. Equal values may be shown once. Inconclusive results and toxic doses are left out. Rule for the calls: active = survival T/C of 150% or more; inactive = T/C below 125% in these data.

System: P388 leukemia ip, CD2F1 mice, survival T/C
Experiment: NCI In Vivo Anticancer Drug Screen. Data for tumor model P388 Leukemia (intraperitoneal) in CD2F1 (CDF1) mice
Conditions: endpoint: median survival time, higher = longer survival
Protocol: The antitumor activity of compounds was measured in mice bearing transplantable tumors. Survival or tumor size were measured and the results are expressed as the measurement made in the treated group (T) divided by the measurement made in the vehicle treated control group (C). The tumor model used in this assay is P388 Leukemia (intraperitoneal) in CD2F1 (CDF1) mice

[1] = dose: 3.12 mg/kg/injection, schedule: Q01DX009 (ip), vehicle: saline with Tween-80
[2] = dose: 6.25 mg/kg/injection, schedule: Q01DX009 (ip), vehicle: saline with Tween-80
[3] = dose: 12.5 mg/kg/injection, schedule: Q01DX009 (ip), vehicle: saline with Tween-80
[4] = dose: 100.0 mg/kg/injection, schedule: Q04DX002 (ip), vehicle: Klucel (hydroxypropylcellulose) (HPC)
[5] = dose: 200.0 mg/kg/injection, schedule: Q04DX002 (ip), vehicle: Klucel (hydroxypropylcellulose) (HPC)
[6] = dose: 60.0 mg/kg/injection, schedule: Q01DX005 (ip), vehicle: saline with Tween-80
[7] = dose: 120.0 mg/kg/injection, schedule: Q01DX005 (ip), vehicle: saline with Tween-80
[8] = dose: 50.0 mg/kg/injection, schedule: Q01DX009 (ip), vehicle: saline with Tween-80
[9] = dose: 100.0 mg/kg/injection, schedule: Q01DX009 (ip), vehicle: saline with Tween-80
[10] = dose: 200.0 mg/kg/injection, schedule: Q01DX009 (ip), vehicle: saline with Tween-80
[11] = dose: 240.0 mg/kg/injection, schedule: Q01DX005 (ip), vehicle: saline with Tween-80
[12] = dose: 50.0 mg/kg/injection, schedule: Q01DX005 (ip), vehicle: Klucel (hydroxypropylcellulose) (HPC)
[13] = dose: 100.0 mg/kg/injection, schedule: Q01DX005 (ip), vehicle: Klucel (hydroxypropylcellulose) (HPC)
[14] = dose: 200.0 mg/kg/injection, schedule: Q01DX005 (ip), vehicle: Klucel (hydroxypropylcellulose) (HPC)
[15] = dose: 25.0 mg/kg/injection, schedule: Q01DX009 (ip), vehicle: saline with Tween-80
[16] = dose: 100.0 mg/kg/injection, schedule: Q01DX001 (ip), vehicle: Klucel (hydroxypropylcellulose) (HPC)
[17] = dose: 200.0 mg/kg/injection, schedule: Q01DX001 (ip), vehicle: Klucel (hydroxypropylcellulose) (HPC)

Measured: T/C

Nc1ccc(S(=O)c2ccc(N)cc2)cc1
inactive: dose: 6.25 mg/kg/injection, schedule: Q04DX003 (ip), vehicle: saline 118 % of control | dose: 12.5 mg/kg/injection, schedule: Q04DX003 (ip), vehicle: saline 107 % of control | dose: 25.0 mg/kg/injection, schedule: Q04DX003 (ip), vehicle: saline 104 % of control | dose: 50.0 mg/kg/injection, schedule: Q04DX003 (ip), vehicle: saline 109 % of control

CC(C)(C)C1=CC2(C(C)(C)C)OC2C(=O)C1=O (configuration not stated)
inactive: [1] 105 % of control | [2] 105 % of control | [3] 98 % of control

C=CCn1c(=O)oc2ccc(Cl)cc21
inactive: dose: 10.0 mg/kg/injection, schedule: Q01DX009 (ip), vehicle: saline with Tween-80 104 % of control | dose: 20.0 mg/kg/injection, schedule: Q01DX009 (ip), vehicle: saline with Tween-80 104 % of control | dose: 40.0 mg/kg/injection, schedule: Q01DX009 (ip), vehicle: saline with Tween-80 104 % of control

C1=CN2CC(c3ccccc3)=NNC2c2ccccc21 (configuration not stated)
inactive: [4] 107 % of control | [5] 99 % of control

O=C1CSC(c2cc([N+](=O)[O-])ccc2Cl)N1c1nncs1 (configuration not stated)
inactive: dose: 60.0 mg/kg/injection, schedule: Q01DX005 (ip), vehicle: Klucel (hydroxypropylcellulose) (HPC) 108 % of control | dose: 120.0 mg/kg/injection, schedule: Q01DX005 (ip), vehicle: Klucel (hydroxypropylcellulose) (HPC) 105 % of control | dose: 240.0 mg/kg/injection, schedule: Q01DX005 (ip), vehicle: Klucel (hydroxypropylcellulose) (HPC) 98 % of control

O=C(COc1ccc(Cl)cc1)OCCN1CCCCCC1
inactive: dose: 60.0 mg/kg/injection, schedule: Q01DX005 (ip), vehicle: saline 109 % of control | dose: 120.0 mg/kg/injection, schedule: Q01DX005 (ip), vehicle: saline 110 % of control | dose: 240.0 mg/kg/injection, schedule: Q01DX005 (ip), vehicle: saline 100 % of control

Cc1cc(C)c2c(=O)n(-c3ccccc3C)c(=S)n(-c3ccccc3C)c2n1
inactive: [6] 100 % of control | [7] 86 % of control

CC(=O)[O][Hg][CH]1C2CC3C(C2OC(C)=O)C31 (configuration not stated)
inactive: [2] 105 % of control | [3] 112 % of control

CC(=O)Nc1ccc(C(C)=O)cc1
inactive: [8] 93 % of control | [9] 89 % of control | [10] 94 % of control

CCOC(=O)C[C@@]1(C)C(=O)O[C@H](c2ccccc2)N1C(=O)c1ccccc1
inactive: [6] 106 % of control | [7] 100 % of control | [11] 94 % of control

O=[N+]([O-])c1cc(Br)c2cccc3c2c1CC3
inactive: dose: 25.0 mg/kg/injection, schedule: Q01DX005 (ip), vehicle: Klucel (hydroxypropylcellulose) (HPC) 91 % of control | [12] 93 % of control | [13] 90 % of control

CCN(CC)c1ccc(NC(c2ccccc2)C(O)c2ccccc2)cc1 (configuration not stated)
inactive: [12] 96 % of control | [13] 104 % of control

OC1C=CC2C(CC1)C1(c3ccccc3)OC2(c2ccccc2)c2ccccc21 (configuration not stated)
inactive: [12] 100 % of control | [13] 98 % of control | [14] 99 % of control

CCOP(=O)(OCC)C(=C(Cl)Cl)C(Cl)Cl
inactive: [3] 100 % of control and 104 % of control | [15] 105 % of control and 115 % of control | [8] 113 % of control and 118 % of control and 124 % of control | [9] 116 % of control

CCOc1c(Br)cc(/C=C/[N+](=O)[O-])cc1OC
inactive: dose: 3.75 mg/kg/injection, schedule: Q01DX005 (ip), vehicle: saline with Tween-80 103 % of control | dose: 7.5 mg/kg/injection, schedule: Q01DX005 (ip), vehicle: saline with Tween-80 112 % of control and 116 % of control | dose: 15.0 mg/kg/injection, schedule: Q01DX005 (ip), vehicle: saline with Tween-80 109 % of control and 120 % of control | dose: 30.0 mg/kg/injection, schedule: Q01DX005 (ip), vehicle: saline with Tween-80 120 % of control

NC(=O)c1ccc(N)nc1
inactive: dose: 0.63 mg/kg/injection, schedule: Q01DX009 (ip), vehicle: saline 104 % of control | dose: 1.25 mg/kg/injection, schedule: Q01DX009 (ip), vehicle: saline 100 % of control | dose: 1.56 mg/kg/injection, schedule: Q01DX009 (ip), vehicle: saline with Tween-80 110 % of control | dose: 2.5 mg/kg/injection, schedule: Q01DX009 (ip), vehicle: saline 121 % of control | [1] 122 % of control | [2] 117 % of control and 95 % of control | dose: 6.25 mg/kg/injection, schedule: Q04DX003 (ip), vehicle: saline with Tween-80 109 % of control

CC1=C(CC/C(C)=C/CC[C@@]2(C)CC[C@H](C(C)C(=O)O)OO2)C(C)(C)CCC1 (some centres not stated)
inactive: dose: 4.38 mg/kg/injection, schedule: Q01DX005 (ip), vehicle: saline + Tween-80 + alcohol 97 % of control | dose: 8.75 mg/kg/injection, schedule: Q01DX005 (ip), vehicle: saline + Tween-80 + alcohol 102 % of control | dose: 17.5 mg/kg/injection, schedule: Q01DX005 (ip), vehicle: saline + Tween-80 + alcohol 94 % of control | dose: 35.0 mg/kg/injection, schedule: Q01DX005 (ip), vehicle: saline + Tween-80 + alcohol 94 % of control

c1ccc(CN2CO[C@@H]3CCCCC[C@H]32)cc1
inactive: [16] 101 % of control | [4] 99 % of control | [17] 102 % of control | [5] 115 % of control | dose: 400.0 mg/kg/injection, schedule: Q01DX001 (ip), vehicle: Klucel (hydroxypropylcellulose) (HPC) 98 % of control | dose: 400.0 mg/kg/injection, schedule: Q04DX002 (ip), vehicle: Klucel (hydroxypropylcellulose) (HPC) 124 % of control

Nc1ncnc(N)c1NC(=O)c1ccc(OCc2ccccc2)cc1
inactive: [6] 105 % of control | [7] 99 % of control | [11] 95 % of control

Nc1cccc(CCCCc2cccc(S(=O)(=O)F)c2)c1
inactive: dose: 50.0 mg/kg/injection, schedule: Q01DX009 (ip), vehicle: saline sonified 100 % of control | dose: 100.0 mg/kg/injection, schedule: Q01DX009 (ip), vehicle: saline sonified 109 % of control | dose: 200.0 mg/kg/injection, schedule: Q01DX009 (ip), vehicle: saline sonified 109 % of control

COc1ccc(/C(C)=N/N=c2/sc3ccccc3n2CC(=O)O)cc1
inactive: dose: 100.0 mg/kg/injection, schedule: Q01DX001 (ip), vehicle: saline with Tween-80 101 % of control | dose: 200.0 mg/kg/injection, schedule: Q01DX001 (ip), vehicle: saline with Tween-80 101 % of control | dose: 400.0 mg/kg/injection, schedule: Q01DX001 (ip), vehicle: saline with Tween-80 91 % of control

CCCCCC(CN(C)C)C(=O)/C=C/c1ccc(Cl)cc1 (configuration not stated)
inactive: [3] 95 % of control | [15] 96 % of control | [8] 113 % of control

COc1ccc(Nc2nnc(-c3ccc4c(c3)OCO4)o2)cc1
inactive: [12] 100 % of control | [13] 93 % of control | [14] 97 % of control

CCC(CC)C1NC(C(CC)CC)N2C(C(CC)CC)N12 (configuration not stated)
inactive: dose: 50.0 mg/kg/injection, schedule: Q01DX001 (ip), vehicle: Klucel (hydroxypropylcellulose) (HPC) 103 % of control | [16] 104 % of control | [17] 101 % of control

COC(=O)c1cccc2c1OCO2
inactive: [9] 100 % of control | [10] 100 % of control | dose: 400.0 mg/kg/injection, schedule: Q01DX009 (ip), vehicle: saline with Tween-80 100 % of control
